According to BindingDB's records for doi:10.1016/j.bmcl.2008.11.105 (Pfizer, 2009):

Biological target: T1, Protein kinase C zeta type (Homo sapiens, UniProt Q05513)
T1 sequence (Q05513 whole entry): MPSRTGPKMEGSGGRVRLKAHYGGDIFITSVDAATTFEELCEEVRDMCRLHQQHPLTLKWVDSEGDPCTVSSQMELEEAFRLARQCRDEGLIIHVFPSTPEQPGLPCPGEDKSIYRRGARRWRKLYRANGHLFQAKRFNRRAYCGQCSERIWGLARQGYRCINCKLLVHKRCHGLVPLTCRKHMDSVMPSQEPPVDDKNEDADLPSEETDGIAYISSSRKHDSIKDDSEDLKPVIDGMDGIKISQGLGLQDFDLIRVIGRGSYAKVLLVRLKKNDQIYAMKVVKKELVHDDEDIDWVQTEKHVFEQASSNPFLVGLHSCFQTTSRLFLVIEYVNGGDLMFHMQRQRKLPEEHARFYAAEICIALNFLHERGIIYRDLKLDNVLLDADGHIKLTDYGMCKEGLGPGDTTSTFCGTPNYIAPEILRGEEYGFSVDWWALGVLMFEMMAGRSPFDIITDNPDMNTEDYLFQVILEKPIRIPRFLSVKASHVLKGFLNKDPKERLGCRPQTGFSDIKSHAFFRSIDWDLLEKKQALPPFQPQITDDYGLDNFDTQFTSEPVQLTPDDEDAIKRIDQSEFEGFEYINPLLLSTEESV
Assay: PKC Enzyme Assay
Settings: pH 7.5; 23 °C
Description: Protein kinase C (PKC), zeta activity was measured by following the phosphorylation of a biotinylated peptide substrate in the presence of ATP using AlphaScreen technology (Perkin Elmer, Waltham, MA). The AlphaScreen assay format relies on bringing a streptavidin coated donor bead and an IgG-protein A acceptor bead into proximity through the interaction between biotinylated phosphorylated peptide and a phospho-specific antibody to the peptide. Upon excitation of the donor bead at 680 nm, excited state singlet oxygen is produced and diffuses to acceptor beads in close proximity (200 nm), activating a cascade of fluorophores resulting in emission between 520-620 nm. Kinase activity is quantified through the evaluation of this emission signal. Compounds are evaluated as potential inhibitors of the PKC kinase activity by measuring their effects on the phosphorylation of the peptide substrate. IC50 value determinations were made for potential inhibitors by testing compounds at 12 concentrations in three-fold serial dilutions with each concentration tested in triplicate. Reactions were carried out for 60 minutes at room temperature. Reactions were then quenched by addition of stop solution. […] Plates were then read on a Fusion reader after an overnight equilibrium at room temperature.

IC50 | SMILES
6.84 µM | CN1CCN(c2cccc3[nH]c(-c4n[nH]c5cc(-c6ccc7ncccc7c6)ccc45)nc23)CC1 [indazole-benzimidazole, 23]
3.02 µM | CN1CCN(c2cccc3[nH]c(-c4n[nH]c5cc(-c6ccc7ccoc7c6)ccc45)nc23)CC1 [indazole-benzimidazole, 25]
